Each block holds one molecule with its values, some of them ahead of it.
How the values were obtained:
[1] = given once daily; cited from earlier work
[2] = target: T1, RAC1/CDC42 Rho GTPases (Mus musculus, UniProt P63001); details: Zallocchi et al. 2013; cited from earlier work
T1 construct: host or cells: Alport mice (in vivo)

[3] = target: T2, endothelin A receptor (Mus musculus, UniProt Q61614); details: Dufek et al. 2016, cited from earlier work
T2 construct: Endothelin A receptors are expressed primarily on mesangial cells; endogenous in cells; host or cells: Alport mice (in vivo)
T2 sequence (Q61614 21-427): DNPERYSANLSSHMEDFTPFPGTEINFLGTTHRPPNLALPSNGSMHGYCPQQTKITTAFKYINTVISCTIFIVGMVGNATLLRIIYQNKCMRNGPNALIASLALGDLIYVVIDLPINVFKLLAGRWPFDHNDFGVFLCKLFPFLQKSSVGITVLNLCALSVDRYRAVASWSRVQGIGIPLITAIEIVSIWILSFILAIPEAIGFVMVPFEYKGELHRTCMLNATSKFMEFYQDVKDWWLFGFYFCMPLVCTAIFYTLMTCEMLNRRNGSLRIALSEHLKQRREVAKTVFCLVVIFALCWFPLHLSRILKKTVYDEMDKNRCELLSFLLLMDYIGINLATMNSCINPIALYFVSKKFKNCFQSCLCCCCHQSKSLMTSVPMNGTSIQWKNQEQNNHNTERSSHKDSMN

[4] = target: T2, endothelin A receptor; assay: Sitaxentan treatment of Alport mice; format: in vivo; details: 30 mg/kg once daily
[5] = target: T2, endothelin A receptor; assay: Sitaxentan treatment of Alport mice; format: in vivo
Protocol: FIG. 1. […] Alport mice were treated with the indicated dose of Sitaxentan once daily from 2 to 7 weeks of age. Real time RT-PCR analysis for the indicated transcripts was performed on glomerular RNA.
FIGS. 3A and 3B. […] 129-Alport animals were treated with the endothelin A receptor specific blocking agent Sitaxentan from 2 weeks to 7 weeks of age.
FIGS. 4A and 4B. […] In FIG. 4A, urine was collected at the indicated timepoints and analyzed for albumin using an ELISA kit. Albumin measures were normalized to urinary creatinine. […] In FIG. 4B, BUN measures were performed on serum from 7-week-old vehicle or Sitaxentan-treated Alport mice.

[6] = tested on: pro-fibrotic genes, including Snail1; assay: QIAGEN mouse fibrosis microarray of glomerular RNA from treated Alport mice; format: in vivo
Protocol: FIG. 2. Glomerular RNA from Alport mice treated with vehicle, Sitaxentan, or nAb #7 was analyzed using QIAGEN mouse fibrosis microarray. The data reveal that Sitaxentan (and Ambrisentan) induce a number of pro-fibrotic genes, including Snail1, which is known to play a key role in promoting renal fibrosis (Grande et al., 2015, Nat Med; 21(9):989-97). […] The data is consistent with aberrant signaling activation by classic small molecule ETAR antagonists that results in pro-fibrotic effects, defining a clear potential advantage of the biologic over small molecule approach.
Glomerular RNA from sitaxentan-treated and neutralizing antibody-treated mice was analyzed using QIAGEN mouse fibrosis microarrays.

[7] = target: T3, ACE (Mus musculus, UniProt P09470); details: cited from earlier work
T3 construct: host or cells: 129 Sv autosomal Alport mice (in vivo)
T3 sequence (P09470 35-1312): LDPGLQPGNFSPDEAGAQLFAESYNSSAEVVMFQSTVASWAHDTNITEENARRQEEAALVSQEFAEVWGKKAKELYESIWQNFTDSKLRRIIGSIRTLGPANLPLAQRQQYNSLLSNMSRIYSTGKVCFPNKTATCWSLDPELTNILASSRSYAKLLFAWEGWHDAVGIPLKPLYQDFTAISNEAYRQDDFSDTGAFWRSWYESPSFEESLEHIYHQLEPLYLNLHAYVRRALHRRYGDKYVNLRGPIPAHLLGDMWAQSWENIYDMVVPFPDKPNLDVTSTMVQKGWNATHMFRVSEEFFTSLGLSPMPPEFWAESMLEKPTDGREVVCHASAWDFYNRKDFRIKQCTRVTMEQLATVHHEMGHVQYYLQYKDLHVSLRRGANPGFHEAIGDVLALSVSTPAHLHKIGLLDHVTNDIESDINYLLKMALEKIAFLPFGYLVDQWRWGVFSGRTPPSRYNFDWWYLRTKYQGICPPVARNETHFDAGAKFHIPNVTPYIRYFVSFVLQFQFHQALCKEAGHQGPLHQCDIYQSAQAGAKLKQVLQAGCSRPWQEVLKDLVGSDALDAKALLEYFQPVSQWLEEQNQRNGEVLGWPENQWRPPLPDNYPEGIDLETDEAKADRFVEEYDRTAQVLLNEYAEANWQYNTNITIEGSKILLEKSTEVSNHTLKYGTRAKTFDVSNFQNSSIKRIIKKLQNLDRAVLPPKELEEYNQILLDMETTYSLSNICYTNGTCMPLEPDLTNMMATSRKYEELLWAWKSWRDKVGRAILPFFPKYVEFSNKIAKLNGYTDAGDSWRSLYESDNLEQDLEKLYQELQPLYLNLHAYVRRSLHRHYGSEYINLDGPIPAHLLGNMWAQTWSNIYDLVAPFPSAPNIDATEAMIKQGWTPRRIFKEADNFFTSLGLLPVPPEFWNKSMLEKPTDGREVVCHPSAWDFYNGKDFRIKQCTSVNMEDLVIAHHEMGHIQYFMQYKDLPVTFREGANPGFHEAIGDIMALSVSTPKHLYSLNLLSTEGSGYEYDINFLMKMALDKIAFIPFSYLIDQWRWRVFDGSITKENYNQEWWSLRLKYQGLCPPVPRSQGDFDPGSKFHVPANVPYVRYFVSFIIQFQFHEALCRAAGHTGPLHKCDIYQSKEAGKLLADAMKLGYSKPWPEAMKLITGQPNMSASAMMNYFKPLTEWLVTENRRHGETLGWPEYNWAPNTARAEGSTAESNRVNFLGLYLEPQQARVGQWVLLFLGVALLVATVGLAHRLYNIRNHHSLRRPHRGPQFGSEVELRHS

SMILES: COC(c1ccccc1)(c1ccccc1)[C@H](Oc1nc(C)cc(C)n1)C(=O)O [Ambrisentan]
half-life in mice [1]: 6 h

SMILES: CCN(CC)CCCC(C)Nc1nc(C)cc(Nc2ccc3nc(C)cc(N)c3c2)n1 (stereo not drawn) [NCS 23766]
laminin 211 deposition in the Alport GBM [2]: largely blocked

GBM dysmorphology (TEM) ([5]; 7-week-old Alport mice): normalized
serum BUN levels ([5]; 7-week-old mice): reduces
GBM laminin α2 deposition ([5]; 129 Sv/J autosomal Alport mice): greatly reduced
age at which measurable urinary albumin was first detected ([5]; albumin ELISA normalized to urinary creatinine): 6 weeks of age
infiltration of glomerular capillaries with mesangial filopodia ([5]; integrin α8 immunopositivity): greatly reduced
Alport pathogenesis ([5]; low dose 10 mg/kg once daily, 2 to 7 weeks of age): ameliorated Alport pathogenesis
glomerular mRNA expression of cytokines and metalloproteinases (MMP-9, MMP-10, MMP-12, MCP-1, IL-6) ([5]; real time RT-PCR): reduced to near control levels
% glomerulosclerosis ([5]; treated 2 to 7 weeks of age): reduced to near control levels
fibrosis scores ([5]; treated 2 to 7 weeks of age): reduced to near control levels
onset and progression of proteinuria ([5]; treated 2 to 7 weeks of age): significantly delays
induction of pro-fibrotic / pro-inflammatory genes incl. Snail1 in glomeruli [6]: markedly inducing
SMILES: Cc1cc2c(cc1CC(=O)c1sccc1S(=O)(=O)Nc1onc(C)c1Cl)OCO2 [Sitaxentan]
blood pressure ([3]; 129 Sv autosomal Alport mouse model): no effect on blood pressure
increase in lifespan ([3]; Alport mice): 20%
GBM damage vs vehicle-treated Alport mice [3]: significantly reduced GBM damage
lifespan vs vehicle [4]: shorter lifespan than vehicle treated Alport mice
half-life in mice [1]: 6 h
therapeutic effect ([5]; 5 mg/kg): little to no significant therapeutic effect
BUN ([5]; 30 mg/kg dose): not statistically different from vehicle treated Alport mice
fibrosis scores ([5]; 30 mg/kg dose): not statistically different from vehicle treated Alport mice
glomerulosclerosis scores ([5]; 30 mg/kg dose): not statistically different from vehicle treated Alport mice
proteinuria ([5]; 30 mg/kg dose): not statistically different from vehicle treated Alport mice
renal disease (renotoxicity) ([5]; increasing doses above 10 mg/kg): exacerbated renal disease

SMILES: CCOC(=O)[C@H](CCc1ccccc1)N[C@@H](C)C(=O)N1[C@H](C(=O)O)C[C@@H]2CCC[C@@H]21 [ramipril]
degree of GBM damage ([7]; Gross et al. 2003): comparable to untreated Alport mice
lifespan ([7]; administered before onset of proteinuria, Gross et al. 2003): doubled
blood pressure ([7]; mouse, in vivo): reduces blood pressure

Reference: patent US12577300B2, “Neutralizing antibodies to human endothelin” (Father Flanagan's Boys' Home Doing Business as Boys Town …, priority 2019, dated 2026)
